Test system: 299254-011-R-J1-PDC complex spheroids viability
Experiment: Anticancer human tumor 299254-011-R-J1-PDC patient-derived melanoma cell line growth inhibition [GQUAD]
Settings: for IC50: curve of first compound; for viability, T/C: stronger effect = lower value; active means viability on the fitted dose curve at most 10% of control; inactive means the rest
Summary of the method: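 Multi-cell-type spheroids of tumor cells with HUVEC and mesenchymal stem cells, treated with drug combinations. Concentrations descend in half-log steps from near clinical Cmax, or from 10 microM where Cmax is unknown; viability read-out.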

[1] = second compound 0.0316 µM, first compound 0.0316 µM
[2] = second compound 0.0316 µM, first compound 0.1 µM
[3] = second compound 0.0316 µM, first compound 0.316 µM
[4] = second compound 0.0316 µM, first compound 1 µM
[5] = second compound 0.0316 µM, first compound 3.16 µM
[6] = second compound 0.0316 µM, first compound 10 µM
[7] = second compound 0.1 µM, first compound 0.0316 µM
[8] = second compound 0.1 µM, first compound 0.1 µM
[9] = second compound 0.1 µM, first compound 0.316 µM
[10] = second compound 0.1 µM, first compound 1 µM
[11] = second compound 0.1 µM, first compound 3.16 µM
[12] = second compound 0.1 µM, first compound 10 µM
[13] = second compound 0.316 µM, first compound 0.0316 µM
[14] = second compound 0.316 µM, first compound 0.1 µM
[15] = second compound 0.316 µM, first compound 0.316 µM
[16] = second compound 0.316 µM, first compound 1 µM
[17] = second compound 0.316 µM, first compound 3.16 µM
[18] = second compound 0.316 µM, first compound 10 µM
[19] = second compound 1 µM, first compound 0.0316 µM
[20] = second compound 1 µM, first compound 0.1 µM
[21] = second compound 1 µM, first compound 0.316 µM
[22] = second compound 1 µM, first compound 1 µM
[23] = second compound 1 µM, first compound 3.16 µM
[24] = second compound 1 µM, first compound 10 µM
[25] = second compound 3.16 µM, first compound 0.0316 µM
[26] = second compound 3.16 µM, first compound 0.1 µM
[27] = second compound 3.16 µM, first compound 0.316 µM
[28] = second compound 3.16 µM, first compound 1 µM
[29] = second compound 3.16 µM, first compound 3.16 µM
[30] = second compound 3.16 µM, first compound 10 µM
[31] = second compound 10 µM, first compound 0.0316 µM
[32] = second compound 10 µM, first compound 0.1 µM
[33] = second compound 10 µM, first compound 0.316 µM
[34] = second compound 10 µM, first compound 1 µM
[35] = second compound 10 µM, first compound 3.16 µM
[36] = second compound 10 µM, first compound 10 µM
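Further: spheroids exposed to the agents for seven days before readout.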
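Wherever viability, T/C is given: percent viability relative to DMSO vehicle control wells = 100%.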

COc1cc(C2c3cc4c(cc3C(OC3OC5COC(C)OC5C(O)C3O)C3COC(=O)C23)OCO4)cc(OC)c1O (stereo unspecified) + CN(C)c1ccc(Nc2c3ccc(NC(=O)CCN4CCCC4)cc3nc3cc(NC(=O)CCN4CCCC4)ccc23)cc1
inactive: viability, T/C [1] 117% | viability, T/C [2] 102% | viability, T/C [3] 115% | viability, T/C [4] 88.3% | viability, T/C [5] 79.4% | viability, T/C [6] 88.7% | viability, T/C [7] 116% | viability, T/C [8] 105% | viability, T/C [9] 92.1% | viability, T/C [10] 92.6% | viability, T/C [11] 101% | viability, T/C [12] 87.1% | viability, T/C [13] 104% | viability, T/C [14] 107% | viability, T/C [15] 93.6% | viability, T/C [16] 88.2% | viability, T/C [17] 87.2% | viability, T/C [18] 76.8% | viability, T/C [19] 105% | viability, T/C [20] 107% | viability, T/C [21] 123% | viability, T/C [22] 93.5% | viability, T/C [23] 87.2% | viability, T/C [24] 95.2% | viability, T/C [25] 102% | viability, T/C [26] 108% | viability, T/C [27] 118% | viability, T/C [28] 81.2% | viability, T/C [29] 81.3% | viability, T/C [30] 81.3% | viability, T/C [31] 89.2% | viability, T/C [32] 105% | viability, T/C [33] 101% | viability, T/C [34] 107% | viability, T/C [35] 98% | viability, T/C [36] 81.8%
> 10 µM: IC50 (second compound 0.0316 µM) | IC50 (second compound 0.1 µM) | IC50 (second compound 0.316 µM) | IC50 (second compound 1 µM) | IC50 (second compound 3.16 µM) | IC50 (second compound 10 µM)

O=C(c1cc(Cc2n[nH]c(=O)c3ccccc23)ccc1F)N1CCN(C(=O)C2CC2)CC1 + Cc1[nH]c2ccc(F)cc2c1-c1nc2c3cccnc3c3ncccc3c2[nH]1
> 10 µM: IC50 (second compound 0.0316 µM) | IC50 (second compound 0.1 µM) | IC50 (second compound 0.316 µM) | IC50 (second compound 1 µM) | IC50 (second compound 3.16 µM) | IC50 (second compound 10 µM)
inactive: viability, T/C [1] 109% | viability, T/C [2] 102% | viability, T/C [3] 102% | viability, T/C [4] 102% | viability, T/C [5] 99% | viability, T/C [6] 91.1% | viability, T/C [7] 95.1% | viability, T/C [8] 86.3% | viability, T/C [9] 97.1% | viability, T/C [10] 110% | viability, T/C [11] 113% | viability, T/C [12] 89.9% | viability, T/C [13] 89.9% | viability, T/C [14] 109% | viability, T/C [15] 90.2% | viability, T/C [16] 95.1% | viability, T/C [17] 103% | viability, T/C [18] 104% | viability, T/C [19] 88.8% | viability, T/C [20] 125% | viability, T/C [21] 127% | viability, T/C [22] 115% | viability, T/C [23] 90.4% | viability, T/C [24] 88.5% | viability, T/C [25] 91.3% | viability, T/C [26] 95.7% | viability, T/C [27] 93.2% | viability, T/C [28] 87.5% | viability, T/C [29] 104% | viability, T/C [30] 85% | viability, T/C [31] 91.6% | viability, T/C [32] 97.2% | viability, T/C [33] 106% | viability, T/C [34] 104% | viability, T/C [35] 92.5% | viability, T/C [36] 93%

CCc1c2c(nc3ccc(O)cc13)-c1cc3c(c(=O)n1C2)COC(=O)[C@]3(O)CC + Cc1cnc(CNC(=O)c2c(=O)c3ccc(N4CCCN(C)CC4)nc3n3c2sc2ccccc23)cn1
> 0.316 µM: IC50 (second compound 0.0316 µM) | IC50 (second compound 0.1 µM) | IC50 (second compound 0.316 µM) | IC50 (second compound 1 µM)
0.142 µM: IC50 (second compound 3.16 µM)
inactive: viability, T/C (second compound 0.0316 µM, first compound 0.000999 µM) 102% | viability, T/C (second compound 0.0316 µM, first compound 0.00316 µM) 95.6% | viability, T/C (second compound 0.0316 µM, first compound 0.00999 µM) 68.3% | viability, T/C [1] 70.9% | viability, T/C (second compound 0.0316 µM, first compound 0.0999 µM) 76.7% | viability, T/C [3] 62.3% | viability, T/C (second compound 0.1 µM, first compound 0.000999 µM) 95.5% | viability, T/C (second compound 0.1 µM, first compound 0.00316 µM) 107% | viability, T/C (second compound 0.1 µM, first compound 0.00999 µM) 76.5% | viability, T/C [7] 71.2% | viability, T/C (second compound 0.1 µM, first compound 0.0999 µM) 65.5% | viability, T/C [9] 60.2% | viability, T/C (second compound 0.316 µM, first compound 0.000999 µM) 93.8% | viability, T/C (second compound 0.316 µM, first compound 0.00316 µM) 95.4% | viability, T/C (second compound 0.316 µM, first compound 0.00999 µM) 72.4% | viability, T/C [13] 67.8% | viability, T/C (second compound 0.316 µM, first compound 0.0999 µM) 68.2% | viability, T/C [15] 60.5% | viability, T/C (second compound 1 µM, first compound 0.000999 µM) 76.4% | viability, T/C (second compound 1 µM, first compound 0.00316 µM) 79.8% | viability, T/C (second compound 1 µM, first compound 0.00999 µM) 77.5% | viability, T/C [19] 74.8% | viability, T/C (second compound 1 µM, first compound 0.0999 µM) 54.6% | viability, T/C [21] 63.4% | viability, T/C (second compound 3.16 µM, first compound 0.000999 µM) 77.6% | viability, T/C (second compound 3.16 µM, first compound 0.00316 µM) 68% | viability, T/C (second compound 3.16 µM, first compound 0.00999 µM) 64% | viability, T/C [25] 59% | viability, T/C (second compound 3.16 µM, first compound 0.0999 µM) 56% | viability, T/C [27] 43% | viability, T/C (second compound 10 µM, first compound 0.000999 µM) 0.47% | viability, T/C (second compound 10 µM, first compound 0.00316 µM) 20.1% | viability, T/C (second compound 10 µM, first compound 0.00999 µM) 34.8% | viability, T/C [31] 11.9% | viability, T/C (second compound 10 µM, first compound 0.0999 µM) 0.39% | viability, T/C [33] 0.32%
< 0.000999 µM: IC50 (second compound 10 µM)

— PubChem BioAssay AID2060513 (Molecular Pharmacology Branch, DTP, NCI, 2025)
